Reference: ChEMBL document CHEMBL4651402, “Screening of ~5500 FDA-approved drugs and clinical candidates for anti-SARS-CoV-2 activity” (2021)

Tested on: SARS-CoV-2
Experiment: microbe, parasite or virus in culture
Details: Severe acute respiratory syndrome coronavirus 2, Vero C1008, 48 h

## CN1N=C2CCN(C(=O)[C@@H](COCc3ccccc3)NC(=O)C(C)(C)N)C[C@@]2(Cc2ccccc2)C1=O [CAPROMORELIN]
  IC50: > 20 µM
read-out: pIC50 (converted)
  IC50: > 20 µM

## C[C@]1(C(=O)N(CCCC(=O)O)Cc2cccc(Cl)c2)CCN1C(=O)c1csc2ccccc12 [GLPG-0974]
  IC50: > 20 µM
read-out: pIC50 (converted)
  IC50: > 20 µM

## CC(C)Cn1cnc2c(N)nc3ccccc3c21 [IMIQUIMOD]
  IC50: > 20 µM
read-out: pIC50 (converted)
  IC50: > 20 µM

## CC(=O)OC1CCC2(C)C3CC(=O)C4(C)C(CC5O[C@]6(CCC(C)CO6)C(C)C54)C3CC[C@H]2C1 (stereo not given in full)
  IC50: > 20 µM
read-out: pIC50 (converted)
  IC50: > 20 µM

## OC(Cn1cncn1)(Cn1cncn1)c1ccc(F)cc1F [FLUCONAZOLE]
  IC50: > 20 µM
read-out: pIC50 (converted)
  IC50: > 20 µM

## Cn1cc(-c2cc3c(N4CCN(c5ncc([C@@](C)(N)c6ccc(F)cc6)cn5)CC4)ncnn3c2)cn1 [AVAPRITINIB]
  IC50: > 20 µM
read-out: pIC50 (converted)
  IC50: > 20 µM

## CNC(=O)c1cc(Oc2ccc3nc(N[C@@H]4CCCC[C@H]4O)sc3c2)ccn1 [SOTULETINIB]
  IC50: > 20 µM
read-out: pIC50 (converted)
  IC50: > 20 µM

## CC[N+](C)(CC)CCOC(=O)C(O)(c1cccs1)C1CCCC1 (stereo not given) [PENTHIENATE]
  IC50: > 20 µM
read-out: pIC50 (converted)
  IC50: > 20 µM

## CCC(=O)N(c1ccc(Cl)c(Cl)c1)[C@@H]1CCC[C@H]1N(C)C
  IC50: > 20 µM
read-out: pIC50 (converted)
  IC50: > 20 µM

## CC(C)(C)c1ccc(CSc2cnn(C(C)(C)C)c(=O)c2Cl)cc1 [PYRIDABEN]
  IC50: > 20 µM
read-out: pIC50 (converted)
  IC50: > 20 µM

## Cc1noc(COc2ccccc2OCC(O)CNC(C)(C)C)n1 (stereo not given)
  IC50: > 20 µM
read-out: pIC50 (converted)
  IC50: > 20 µM

## CCNC(=O)c1noc(-c2cc(C(C)C)c(O)cc2O)c1-c1ccc(CN2CCOCC2)cc1 [LUMINESPIB]
  IC50: > 20 µM
read-out: pIC50 (converted)
  IC50: > 20 µM

## CCOc1ccc(/N=C(\C)Nc2ccc(OCC)cc2)cc1 [PHENACAINE]
  IC50: > 20 µM
read-out: pIC50 (converted)
  IC50: > 20 µM

## COc1cc(Nc2ncc3c(n2)-c2ccc(Cl)cc2C(c2c(F)cccc2OC)=NC3)ccc1C(=O)O [ALISERTIB]
  IC50: > 20 µM
read-out: pIC50 (converted)
  IC50: > 20 µM

## NCC(CC(=O)O)c1ccc(Cl)cc1 (stereo not given) [BACLOFEN]
  IC50: > 20 µM
read-out: pIC50 (converted)
  IC50: > 20 µM

## CCCN(CCC)C(=O)C1=Cc2ccc(-c3ccc(C(=O)N4CCCC4)cc3)cc2N=C(N)C1 [MOTOLIMOD]
  IC50: > 20 µM
read-out: pIC50 (converted)
  IC50: > 20 µM

## CN(C)CCOCC(=O)NC12CC3CC(CC(C3)C1)C2
  IC50: > 20 µM
read-out: pIC50 (converted)
  IC50: > 20 µM

## Oc1c(Cl)cc(Cl)cc1Sc1cc(Cl)cc(Cl)c1O [BITHIONOL]
  IC50: > 20 µM
read-out: pIC50 (converted)
  IC50: > 20 µM

## CC(=O)OCC1=C(C(=O)O)N2C(=O)C(NC(=O)CSc3ccncc3)C2SC1 (stereo not given)
  IC50: > 20 µM
read-out: pIC50 (converted)
  IC50: > 20 µM

## N=C(N)NC(=O)c1nc(Cl)c(N2CCCCCC2)nc1N [N,N-HEXAMETHYLENEAMILORIDE]
  IC50: > 20 µM
read-out: pIC50 (converted)
  IC50: > 20 µM

## C[N+](C)(C)C[C@H](O)CC(=O)O [DEXTROCARNITINE]
  IC50: > 20 µM
read-out: pIC50 (converted)
  IC50: > 20 µM

## Cc1cn([C@H]2C[C@H](F)[C@@H](CO)O2)c(=O)[nH]c1=O [ALOVUDINE]
  IC50: > 100 µM
read-out: pIC50 (converted)
  IC50: > 100 µM

## CC(=O)OC1CCC2C3CCC4C/C(=N\Oc5ccc([N+](=O)[O-])cc5)C(Cl)CC4(C)C3CCC12C (stereo not given)
  IC50: > 20 µM
read-out: pIC50 (converted)
  IC50: > 20 µM

## CCNC1C2CCC(C2)C1c1ccccc1 (stereo not given) [FENCAMFAMIN]
  IC50: > 20 µM
read-out: pIC50 (converted)
  IC50: > 20 µM

## NC[C@H]1O[C@H](O[C@H]2[C@H](O)[C@@H](O)[C@H](N)C[C@@H]2N)[C@H](N)[C@@H](O)[C@@H]1O [NEAMINE]
  IC50: > 20 µM
read-out: pIC50 (converted)
  IC50: > 20 µM

## CC(C)Nc1ncccn1 [ISAXONINE]
  IC50: > 20 µM
read-out: pIC50 (converted)
  IC50: > 20 µM

## CC(C)(C(=O)O)c1ccc(C(O)CCCN2CCC(C(O)(c3ccccc3)c3ccccc3)CC2)cc1 (stereo not given) [FEXOFENADINE]
  IC50: > 20 µM
read-out: pIC50 (converted)
  IC50: > 20 µM

## Cn1cc([S+](C)[O-])c(=O)c2ccc(F)cc21 (stereo not given) [FLOSEQUINAN]
  IC50: > 20 µM
read-out: pIC50 (converted)
  IC50: > 20 µM

## CN(C(=O)CCCOc1ccc2[nH]c(=O)ccc2c1)C1CCCCC1 [CILOSTAMIDE]
  IC50: > 20 µM
read-out: pIC50 (converted)
  IC50: > 20 µM

## COc1cc([C@@H]2c3cc4c(cc3[C@@H](O[C@@H]3O[C@@H]5CO[C@@H](C)O[C@H]5[C@H](O)[C@H]3O)[C@H]3COC(=O)[C@H]23)OCO4)cc(OC)c1O [ETOPOSIDE]
  IC50: > 20 µM
read-out: pIC50 (converted)
  IC50: > 20 µM

## CCC(C)n1ncn(-c2ccc(N3CCN(c4ccc(OC[C@@H]5CO[C@@](Cn6cncn6)(c6ccc(Cl)cc6Cl)O5)cc4)CC3)cc2)c1=O (stereo not given in full)
  IC50: > 20 µM
read-out: pIC50 (converted)
  IC50: > 20 µM

## Cc1c(Cl)cccc1Nc1ccccc1C(=O)O [TOLFENAMIC ACID]
  IC50: > 20 µM
read-out: pIC50 (converted)
  IC50: > 20 µM

## N=C(N)N1CCCC(CNC(=O)CC(NS(=O)(=O)c2ccc3ccccc3c2)C(=O)N(CC(=O)O)C2CC2)C1 (stereo not given)
  IC50: > 20 µM
read-out: pIC50 (converted)
  IC50: > 20 µM

## O=C(O)c1cc(=O)c2ccccc2[nH]1 [TRANSTORINE]
  IC50: > 20 µM
read-out: pIC50 (converted)
  IC50: > 20 µM

## N=C(N)NC(=N)NCCc1ccccc1 [PHENFORMIN]
  IC50: > 20 µM
read-out: pIC50 (converted)
  IC50: > 20 µM

## Nc1ncnc2c1ncn2C1CC(O)C(CO)O1 (stereo not given)
  IC50: > 20 µM
read-out: pIC50 (converted)
  IC50: > 20 µM

## CCCCCCCCCCCCCCCCCC(=O)O [STEARIC ACID]
  IC50: > 20 µM
read-out: pIC50 (converted)
  IC50: > 20 µM

## COc1ccc(CC(C)C(C)Cc2ccc(OC)c(OC)c2)cc1OC (stereo not given)
  IC50: > 20 µM
read-out: pIC50 (converted)
  IC50: > 20 µM

## CN(Cc1cnc2nc(N)nc(N)c2n1)c1ccc(C(=O)NC(CCC(=O)O)C(=O)O)cc1 (stereo not given)
  IC50: > 20 µM
read-out: pIC50 (converted)
  IC50: > 20 µM

## CC(=O)N(O)C/C=C/c1cccc(Oc2ccccc2)c1
  IC50: > 20 µM
read-out: pIC50 (converted)
  IC50: > 20 µM

## N#CCC1(n2cc(-c3ncnc4[nH]ccc34)cn2)CN(C2CCN(C(=O)c3ccnc(C(F)(F)F)c3F)CC2)C1 [ITACITINIB]
  IC50: > 20 µM
read-out: pIC50 (converted)
  IC50: > 20 µM

## C=CCn1c(=O)n(C2OC(CO)C(O)C2O)c2nc(N)[nH]c(=O)c21 (stereo not given)
  IC50: > 20 µM
read-out: pIC50 (converted)
  IC50: > 20 µM

## COc1ccccc1C(=O)NCCc1ccc(S(=O)(=O)NC(=O)NC2CCCC2)cc1 [GLISENTIDE]
  IC50: > 20 µM
read-out: pIC50 (converted)
  IC50: > 20 µM

## C[N+](C)(CCOc1ccccc1)Cc1ccccc1 [BEPHENIUM]
  IC50: > 20 µM
read-out: pIC50 (converted)
  IC50: > 20 µM

## Cc1cc(C(C)(C)CC(C)(C)C)ccc1OCCOCC[N+](C)(C)Cc1ccccc1 [METHYLBENZETHONIUM]
  IC50: > 20 µM
read-out: pIC50 (converted)
  IC50: > 20 µM

## NS(=O)(=O)c1cc2c(cc1Cl)NC(CC1CCCC1)NS2(=O)=O (stereo not given) [CYCLOPENTHIAZIDE]
  IC50: > 20 µM
read-out: pIC50 (converted)
  IC50: > 20 µM

## CC(=O)NCCCCCC(=O)O [ACEXAMIC ACID]
  IC50: > 20 µM
read-out: pIC50 (converted)
  IC50: > 20 µM

## O=C(OOC(=O)c1ccccc1)c1ccccc1 [BENZOYL PEROXIDE]
  IC50: > 20 µM
read-out: pIC50 (converted)
  IC50: > 20 µM

## COc1ccc2c3c1OC1C(OC(C)=O)=CCC4C(C2)N(C)CCC314 (stereo not given)
  IC50: > 20 µM
read-out: pIC50 (converted)
  IC50: > 20 µM

## O=C1NS(=O)(=O)c2ccccc21 [SACCHARIN]
  IC50: > 20 µM
read-out: pIC50 (converted)
  IC50: > 20 µM

## CC(C)(Oc1ccc(C2CC2(Cl)Cl)cc1)C(=O)O (stereo not given) [CIPROFIBRATE]
  IC50: > 20 µM
read-out: pIC50 (converted)
  IC50: > 20 µM

## CC(C)(C)CC(C)(C)c1ccc(O)c(Cc2ccc(Cl)cc2Cl)c1 [CLOFOCTOL]
  IC50: > 20 µM
read-out: pIC50 (converted)
  IC50: > 20 µM

## CCOc1ccc(/N=N/c2ccc(N)cc2N)cc1 [ETHOXAZENE]
  IC50: > 20 µM
read-out: pIC50 (converted)
  IC50: > 20 µM

## COCC(=O)Nc1ccc(/N=C(\C)N(C)C)cc1
  IC50: > 20 µM
read-out: pIC50 (converted)
  IC50: > 20 µM

## O=C(/C=C/c1c(C(=O)O)[nH]c2cc(Cl)cc(Cl)c12)Nc1ccccc1
  IC50: > 20 µM
read-out: pIC50 (converted)
  IC50: > 20 µM
